The values below come from patent US20240398970A1, “B7-H3 TARGETING ANTIBODY-DRUG CONJUGATE, AND PREPARATION METHOD THEREFOR AND USE THEREOF” (priority 2020, published 2024).

Numbered stars: 1 amine (or outer) side, 2 acyl side, 3 side chain; on linkers, the order of the positions; unused ones are H or OH. Square brackets hold non-standard residues; d marks the D form. Peptide text beside a SMILES is read from it. * marks the point of attachment. X1 = CC[C@@]1(O)C(=O)OCc2c1cc1n(c2=O)Cc2c-1nc1cc(F)c(C)c3c1c2C(N*)CC3; Hexanoyl(6-maleimido) = O=C1C=CC(=O)N1CCCCCC(=O)*; NHCH2OCH2CO = O=C(COCN[*:1])[*:2]

The test system of one data set is NCI-N87 cell line. The data set is described as follows: Killing activity on NCI-N87 before and after enzyme digestion by cathepsin B system. The class given is cell-based. The conditions noted are these: NCI-N87, 144 hours, after cathepsin B system pH 5.0, 37° C., 4 hours; read-out: IC50 (based on SN-38 equivalent) After Enzyme Digestion. As to the method: NCI-N87 cell line was selected as the experimental cell lines. After the sample was incubated in cathepsin B system (100 mM sodium acetate-acetic acid buffer, 4 mM dithiothreitol, pH 5.0) at 37° C. for 4 hours, the obtained sample was diluted with culture medium to different concentrations. 8 concentrations (1.5 to 10-fold dilution) were set from 70 nM to 0.003 nM of SN-38 concentration. […] The IC50 value was calculated by reading the […] data after chemical luminescent staining with CellTiter-Glo® Luminescent Cell Viability Assay.

The next data set has as its target cathepsin B (Homo sapiens, UniProt P07858). Nature of the data set: In vitro enzyme digestion of linker-drug conjugates. Type of data set: in vitro ADME. To be noted: pH 5.0 to 7.0. The procedure:
The linker-drug conjugate (LE14 and GGFG-Dxd) was co-incubated with cathepsin B in three different pH (5.0, 6.0, 7.0) buffers. Samples were taken at different time points and entered into a high-performance liquid chromatography-mass spectrometry instrument. The external standard method (with DXD as the external standard) was used to determine the release percentage of the drug.

Data set [1] is described as follows: Coupling of linker-drug conjugates with other/different antibodies. The class given is physicochemical. To be noted: coupling with antibodies other than or including FDA016.

For the molecule `CCc1c2c(nc3ccc(O)cc13)-c1cc3c(c(=O)n1C2)COC(=O)[C@]3(O)CC` [SN-38, 7-ethyl-10-hydroxycamptothecin], the IC50 (as a rule, the concentration that inhibits the measured activity by half) in the data set on NCI-N87 cell line is 7.45 nM.

Take `CC[C@@]1(O)C(=O)OCc2c1cc1n(c2=O)Cc2c-1nc1cc(F)c(C)c3c1c2C(NC(=O)COCNC(=O)CNC(=O)[C@H](Cc1ccccc1)NC(=O)CNC(=O)CNC(=O)CCCCCN1C(=O)C=CC1=O)CC3` (stereo partly shown) [GGFG-Dxd] ({Hexanoyl(6-maleimido)}-GGFG[NHCH2OCH2CO]-X1): at cathepsin B, the “Speed of enzyme digestion” value was “slow speed of enzyme digestion”. Moreover, in data set [1], the “Aggregation ratio when coupled with other/different antibodies” value is given as “high aggregation ratio” and the “Precipitation when coupled with other/different antibodies” value is recorded as “produced precipitation”.
